Read-outs that look alike come from different tables or passages of the source.

The assay deals with Phosphorylation of STAT6 in human A549 cells. Kind of assay: Phosphorylated STAT6 (pSTAT6) flow cytometry assay in human A549 cells. The assay is classed as cell-based. An excerpt: Example 3. Phosphorylated STAT6 (pSTAT6) Flow Cytometry Assay in Human A549 Cells
Phosphorylation of STAT6 in human A549 cells was quantitatively measured using flow cytometry technology.
Background: Flow cytometry measures light scatter and fluorescence of single cells or particles in a stream.

The mark [1] stands for this setting: read-out: STAT6 IL4 pSTAT6 assay in A549 cells: Average IC50.

For `COc1ccccc1-c1cc(C2=CCCN(C(=O)CCn3ccnn3)C2)c(F)c2[nH]c(C(=O)N3CCc4cc(C(F)(F)F)ccc4C3)cc12` [Example I-977], the IC50 under setting [1] was less than 100 nM.

On to `COc1ccccc1-c1cc(C2=CCCN(C(=O)CCn3ccnn3)C2)c(F)c2[nH]c(C(=O)N3CCN(CC(=O)NC(C)C)CC3)cc12` [Example I-1200], for which the IC50 under setting [1] is less than 100 nM.

For `COc1cc(F)cnc1N1CCN(C(=O)c2cc3c(-c4ccc(C)c(C#N)c4)cc(C4=CCCN(C(=O)CCn5ccnn5)C4)c(F)c3[nH]2)CC1` [Example I-648], the IC50 under setting [1] is less than 100 nM.

For the compound `CCc1cn[nH]c1N1CCN(C(=O)c2cc3c(-c4cnccc4OC)cc(C4=CCCN(C(=O)CCn5ccnn5)C4)c(F)c3[nH]2)CC1` [Example I-540], the IC50 under setting [1] was less than 100 nM.

`COc1cc(F)c(F)cc1-c1cc(C2=CCCN(C(=O)CCn3ccnn3)C2)c(F)c2[nH]c(C(=O)N3CCN(c4ncccc4OC4CC4)CC3)cc12` [Example I-596]: the IC50 under setting [1] was less than 100 nM.

With `COc1cc(F)cnc1N1CCN(C(=O)c2cc3c(-c4cccc(CO)c4C)cc(C4=CCCN(C(=O)CCn5ccnn5)C4)c(F)c3[nH]2)CC1` [Example I-616], the IC50 under setting [1] is greater than 100000 nM.

`COc1ccccc1N1CCN(C(=O)c2cc3c(-c4cccnc4OC)cc(C4=CCCN(C(=O)CCn5ccnn5)C4)c(F)c3[nH]2)CC1` [Example I-599]: the half-inhibitory concentration (IC50) under setting [1] was less than 100 nM.

Regarding `CNc1ccc(-c2cc(C3=CCCN(C(=O)CCn4ccnn4)C3)c(F)c3[nH]c(C(=O)N4CCN(c5ncccc5OC)CC4)cc23)c(OC)c1` [Example I-580], the IC50 under setting [1] was less than 100 nM.

Consider `CCC1CN(C)CC1c1cc(C2=CCCN(C(=O)CCn3ccnn3)C2)c(F)c2[nH]c(C(=O)N3CCN(c4ncc(F)cc4OC)CC3)cc12` (stereo not shown) [Example I-1208, 1-[5-[4-(4-ethyl-1-methyl-pyrrolidin-3-yl)-7-fluoro-2-[4-(5-fluoro-3-methoxy-2-pyridyl)piperazine-1-carbonyl]-1H-indol-6-yl]-3,6-dihydro-2H-pyridin-1-yl]-3-(triazol-1-yl)propan-1-one], for which the IC50 (listed as I-393, read-out: STAT6 IL4 pSTAT6 assay in A549 cells: Average IC50) was less than 100 nM.

For the compound `COc1cc(F)cnc1N1CCN(C(=O)c2cc3c(-c4cnn(C5CC5)c4)cc(C4=CCCN(C(=O)CCn5ccnn5)C4)c(F)c3[nH]2)CC1` [Example I-1151], the IC50 under setting [1] was less than 100 nM.

As to `COc1ccccc1-c1cc(C2=CCCN(C(=O)CCn3ccnn3)C2)c(F)c2[nH]c(C(=O)N3CCN(c4cccnc4)CC3)cc12` [Example I-774], under setting [1], the IC50 was less than 100 nM.

As for `COc1ccccc1-c1cc(C2=CCCN(C(=O)CCn3ccnn3)C2)c(F)c2[nH]c(C(=O)N3CCN(c4ncnc5cccc(F)c45)CC3)cc12` [Example I-929], under setting [1], the IC50 was less than 100 nM.

For the compound `COc1ccccc1-c1cc(C2=CCCN(C(=O)CCn3ccnn3)C2)c(F)c2[nH]c(C(=O)N3CCN(c4ncccc4C(C)C)CC3)cc12` [Example I-333], the IC50 under setting [1] was less than 100 nM.

As for `CCc1ccc(-c2cc(C(=O)N3Cc4cnn(CC)c4C3)cc3cc(C4=CCCN(C(=O)C(=O)O)C4)n(CC4CC4)c23)c(C)n1` [Example I-798], the IC50 under setting [1] was greater than 100000 nM.

Consider `COc1ccccc1-c1cc(C2=CCCN(C(=O)CCn3ccnn3)C2)c(F)c2[nH]c(C(=O)N3CCN(c4cnc5ncccn45)CC3)cc12` [Example I-1017], for which, under setting [1], the IC50 was less than 100 nM.

For `COc1cc(F)cnc1N1CCN(C(=O)c2cc3c(-c4ccccc4CN4CCOCC4)cc(C4=CCCN(C(=O)CCn5ccnn5)C4)c(F)c3[nH]2)CC1` [Example I-1123], the IC50 under setting [1] is less than 100 nM.

As for `COc1ccccc1-c1cc(C2=CCCN(C(=O)CCn3ccnn3)C2)c(F)c2[nH]c(C(=O)N3CCN(c4ccccn4)C(=O)C3)cc12` [Example I-1008], the IC50 under setting [1] was less than 100 nM.

For `CCS(=O)(=O)N1CCN(C(=O)c2cc3c(-c4ccccc4OC)cc(C4=CCCN(C(=O)CCn5ccnn5)C4)c(F)c3[nH]2)CC1` [Example I-980], under setting [1], the IC50 was less than 100 nM.

As to `COc1ccccc1N1CCN(C(=O)c2cc3c(-c4cnccc4OCF)cc(C4=CCCN(C(=O)CCn5ccnn5)C4)c(F)c3[nH]2)CC1` [Example I-405], the IC50 under setting [1] is greater than 100000 nM.

As a reminder, the IC50 is the concentration that gives 50% inhibition.

These data come from patent publication US20250214977A1, “STAT6 INHIBITORS AND USES THEREOF” (Kymera Therapeutics, Inc., priority 2024, published 2025).
